Data published in ChEMBL document CHEMBL1146739, “Alpha,alpha-trehalose derivatives bearing guanidino groups as inhibitors to HIV-1 Tat-TAR RNA interaction in human cells” (Bioorg Med Chem Lett, 2004).

system: Nucleic Acid; test: Inhibitory activity against TatTAR RNA interaction in human cells by Tat-dependent HIV-1 long terminal repeats (LTR)-driven chloramphenicol acetyltransferase assay at 3 uM concentration; decreased from 69.5 to 44.2; assay type: cell-based; set-up: unit not given here

SMILES | Activity
N=C(N)NCCCC(=O)NCC1OC(OC2OC(CNC(=O)CCCNC(=N)N)C(O)C(O)C2O)C(O)C(O)C1O (centres undefined) | 44.2
N=C(N)NCC(=O)NCC1OC(OC2OC(CNC(=O)CNC(=N)N)C(O)C(O)C2O)C(O)C(O)C1O (centres undefined) | 44.2
NC(N)=NCCCC(N)C(=O)NCC1OC(OC2OC(CNC(=O)C(N)CCCN=C(N)N)C(O)C(O)C2O)C(O)C(O)C1O (centres undefined) | 44.2
N=C(N)NCC1OC(OC2OC(CNC(=N)N)C(O)C(O)C2O)C(O)C(O)C1O (centres undefined) | 44.2
